Reference: patent publication US8026217B2, “Compositions and methods for treating neural anoxia and spreading depression” (Florida Atlantic University, priority 2007, dated 2011)
Entries after “also recorded” stand apart in the source; their conditions may differ. Read-outs that look alike come from different tables or passages of the source.

Assays:
[1] = system: metathoracic ganglion of the locust; assay: SD-like events evoked by high-potassium (KCl 150 mM) injection into the locust metathoracic ganglion; assay type: in vivo, Locusta migratoria; conditions: for time to recover ventilatory central pattern generator (vCPG) function following SD: Example 5, NO synthase inhibitor and NO donors, FIG. 4G
Text: CSD is increasingly accepted as a primary causative agent for migraine, particularly migraine with aura. The cellular mechanisms underlying stroke, seizures and migraine are not exclusive to mammals. Using the locust (Locusta migratoria), a proven model for examining the effects of heat stress on CNS activity, a rapid rise in extracellular potassium ([K^+]o) during anoxia/hypoxia, extreme heat, and ouabain exposure was monitored. This phenomenon has all the characteristics of SD in the neocortex of mammals. Since the physiological mechanisms observed in locust SD-like events are similar to that of mammals, findings in this insect model are predictably transferable to mammals, including humans. In the locust, model SD-like events were triggered in the CNS by injecting small volumes of saline containing high levels of potassium ions (KCl at 150 mM instead of the nominal resting level of 10 mM) into the metathoracic ganglion. Potassium-sensitive microelectrodes were used to measure SD generated by KCl injections, while manipulating the PKG pathway.
This tissue response is characterised by a transient surge and subsequent clearance of potassium ions in the extracellular space ([K^+]o). During SD-like events ventilatory motor activity ceases. This was monitored using an electromyographic electrode positioned on an abdominal muscle used for ventilation (Ventilatory EMG). Upon restoration of the potassium ion gradient the neural activity recovered and preparations began to ventilate again.
The first injection was used as a control. Following the first injection, animals were allowed 10 minutes of perfusion with standard locust saline before treatment with bath applications of selected drugs (i.e. KT5823, T-0156). All drugs were dissolved in a minimum amount of DMSO before further dilution with standard locust saline to a concentration of 10^−5M and were superfused over the metathoracic ganglion for 10 minutes before the second injection. A total of 20 minutes elapsed between the first and second injection in all experiments. As shown in Figure (Bi), duration at half the maximum amplitude was used to characterize the severity of SD-like events. A significant increase was observed following the second injection when compared to the first in control animals. […] Heat shock (HS) preconditioning reduced SD duration evoked by the first and second injections. […] Numbers in the histogram bars indicate number of preparations tested. Asterisks indicate statistically significant differences between the first and second injection ([…]).
Motor pattern activity was not measured for T-0156/Cantharidin treatments. […] Figure (Cii) illustrates the drug effects by showing the percentage difference in rhythm recovery time (second injection relative to first injection).
Single SD events were evoked by injection of saline (50 nL) containing elevated potassium chloride (150 mM vs. 10 mM) directly into the metathoracic ganglion. […] During SD, ventilatory motor activity monitored electromyographically (EMG) ceased and recovered upon restoration of the potassium ion gradient. The duration of the [K^+]o wave at half its maximal amplitude and the time from failure of motor patterning to the recovery of a ventilatory rhythm were measured. […] Numbers in brackets represent sample size.
As in Example 3, SD events were evoked by injection of saline (50 nL) containing elevated potassium chloride (150 mM vs. 10 mM) directly into the metathoracic ganglion of locust preparations.

[2] = system: adult Drosophila melanogaster; assay type: in vivo; conditions: sitter adults, volatilized from DMSO 1 hr, 1 mM KT5823, 1 mM Cantharidin, 200 mM DCA, 10 mM 8-Bromo cGMP, 10 mM T-0156, versus DMSO sham
Method: FIG. 9 is a diagram illustrating in vivo treatment of adult Drosophila melanogaster with pharmacological agents. […] Adult sitters were exposed to various drugs known to target components of the PKG pathway (FIG. 8A). These drugs included: 10 mM T0156, a cGMP-specific phosphodiesterase-5 inhibitor, 10 mM 8-Bromo-cGMP, a PKG activator, 1 mM KT5823, a PKG inhibitor, 1 mM Cantharidin, a PP2A inhibitor, and 200 mM DCA, a K^+ channel activator. All drugs were solubilized in dimethyl sulfoxide (DMSO), where flies treated with only DMSO were used as sham controls. […] 10 μL of drug solution was applied to a crushed Kim wipe at the bottom of each 10 mL test vial. An additional Kim wipe was crushed over top of this to prevent direct contact between the fly and solution. 10 flies were then placed in the vial which was capped with a semi-permeable buzz-stopper, covered with a cut-out finger of a large latex glove to prevent chemical vapours from escaping, and incubated in the dark. The flies were subjected to the drug for 1 hr prior to each behavioural assay. In the drug combination experiments, 20 uL of DMSO was used as a control sham, and combinations of two pharmacological treatments were added as two separate 10 uL aliquots.
Whether or not fly PKG levels could be manipulated in vivo using a technique that uses volatilization of pharmacological agents was next examined. The role of these targets in vivo using sitter flies was examined by depositing pharmacological agents dissolved in DMSO on a cellulose tissue, and allowing them to volatize over minutes in an air tight vial at room temperature (FIG. 9). Adults were exposed to the volatilized compound for one hour in the dark and then assayed for locomotory resilience to acute hypoxia. Control sham animals (FIG. 7A) were treated with only DMSO. Compounds were chosen to target different components of the cGMP pathway (FIG. 8A) in tracheal smooth muscle and Chinese hamster ovary cells, where cGMP activates PKG, thereby activating PP2A, which then de-phosphorylates K^+ channels. The hypothesis that inhibition of this pathway would result in an increase in whole cell K^+ channel conductance, thereby leading to increased resilience to anoxic coma onset, was tested.
Locomotory Tolerance Assay during Acute Hypoxia: Ten flies (separated into males or females) from each of the three strains (rover [for^R], sitter [for^S] and for^s2) were selected and placed in three separate vials with food at least 24 hours before each experiment. At the time of the experiment, flies were emptied into 10 mL empty test vials covered with permeable sponge caps of equivalent thickness, allowing for consistent gas exchange. These test vials were then placed into a 600 mL beaker which was covered with parafilm, creating a closed chamber with an escape hole (1 cm diameter). The parafilm top was punctured with a needle connected to a gas tank (by a plastic hose), through which the inert gas argon was expelled. […] The needle tip was fastened to the bottom of the beaker and inserted into a larger sponge of similar texture to the vial sponge caps to ensure that gas expelled from the needle was dispersed equally throughout the beaker. Also, to ensure that all test vial positions in the beaker received equal gas flow, test vial positions were alternated every trial to reduce variability.
The experiment required exposing the test vials with 10 flies in the container to pure argon gas expelled from the tank at a flow rate of 600 cc/min+/−5%. Time of behavioural failure was recorded by observing the fly undergo a seizure, which was quickly followed by an anoxic coma.

PKG = PKG enzyme activity assay on heads of treated flies; assay type: biochemical, Drosophila melanogaster; conditions: heads of sitter flies treated in vivo with volatilized agent; versus sham control
Method: PKG enzyme activity assays: PKG enzyme activity assays were conducted according to the procedure outlined in Kaun et al. (J Exp Biol. 210(Pt 20):3547-3558, 2007). Adult Drosophila were decapitated and the heads were homogenized in 25 mM 1-1 Tris (pH 7.4), 1 mM 1-1 EDTA, 2 mM 1-1 EGTA, 5 mM 1-1 β-mercaptoethanol, 0.05% Triton X-100 and protease inhibitor solution (Roche Diagnostics). Following microcentrifugation for 5 min, the supernatant was removed and those supernatants containing equal amounts of total protein were examined for PKG enzyme activity. The reaction mixture contained the following substances: 40 mM 1-1 Tris-HCl (pH 7.4), 20 mM 1-1 magnesium acetate, 0.2 mM 1-1 [γ^32P]ATP (500-1000 c.p.m. pmol−1), […] heptapeptide (RKRSRAE), (SEQ ID NO:6), (3 mM 1-1 cGMP and a highly specific inhibitor of cAMP-dependent protein kinase. The next step of the procedure involved incubating the reaction mixtures at a temperature of 30° C. for 10 min, followed by ending the reaction by spotting 70 μl of the reaction mixture onto Whatman P-81 filters. To remove any unreacted [γ^32P]ATP, these spots were then soaked with 75 mM 1-1 H3PO4 for 5 min and washed three times with 75 mM 1-1 H3PO4. Before quantifying enzyme activity, filters were rinsed with 100% ethanol and air dried. To calculate PKG enzyme activity, counts were taken in a Wallac 1409 Liquid Scintillation Counter using universal scintillation cocktail (ICN). PKG activity was presented in the figures as pmol of ^32P incorporated into the substrate min−1 mg−1 protein.

zebrafish = assay: Zebrafish behaviour during acute anoxia; assay type: in vivo; conditions: whole zebrafish in anoxic water post-treatment; expected
Text: Vertebrate (zebrafish) behaviour is examined during acute anoxia. Whole zebrafish are exposed to anoxic water post-treatment with a PDE5 inhibitor, 8-bromo-GMP, KT5823, and Cantharidin. The time until the animal knocks out during anoxia is monitored.

respiratory brain slices = assay: Neural function in respiratory brain slices during sodium azide-induced anoxia; set-up: species or system mouse or rat; conditions: expected
Text: Neural function in mammals (mouse or rat) is examined pharmacologically during acute anoxia in respiratory brain slices via sodium azide, which chemically induces anoxia. Following administration of the sodium azide, the time until neural failure is monitored. This is done in the presence of a PDE5 inhibitor, 8-bromo-GMP, KT5823, and Cantharidin.

mammals (mouse or rat) = assay: Spreading depression in mammals; assay type: in vivo; conditions: expected
Text: The pharmacological effects of a PDE5 inhibitor, 8-bromo-GMP, KT5823, and Cantharidin during spreading depression are examined in mammals (mouse or rat).

NO-producing cells = assay: DAF2-DA staining of NO-producing cells in locust metathoracic ganglion; assay type: cell-based, Locusta migratoria; conditions: 100 μM; 3 minutes at 35° C.
Method: The pattern of cell staining was similar to that of NOS staining in Schistocerca gregaria and L. migratoria (Müller and Bicker, The Journal of Neuroscience 14:7521-7528, 1994; Bullerjahn and Pflüger, Zoology 106:3-17, 2003). The scale in the Figure is 500 μm. FIGS. 4B and 4C show fluorescing cell bodies at room temperature (20° C.) (4B) and immediately following exposure to heat (35° C.) (4C) (scale for both Figures is 50 μm). The change in fluorescence following exposure to heat was quantified as shown in FIG. 4D (3 minutes at 35° C., shown by bar above x-axis). The difference between cell body fluorescence and background more than doubled immediately following exposure to heat (t=5 minutes). […] Fluorescence was measured from the brightest 3 cells from each ganglion. [Sample sizes: Control, n=7; LNAME, n=4; and No heat, n=3. Asterisks indicate significant differences of control from LNAME and No heat groups (Tukey, p<0.05).]

Row | SMILES | time to recover ventilatory central pattern generator (vCPG) function following SD [1] | time to anoxic coma onset during acute hypoxia, single agents [2] | head PKG enzyme activity (PKG) | further results
1 | CC(=O)N[C@@H](C(=O)O)C(C)(C)SN=O [SNAP, S-nitroso-N-acetyl-D-penicillamine] | did not exacerbate recovery times beyond that of control preparation times | – | – | –
2 | COC(=O)c1c(-c2cc(OC)c(OC)c(OC)c2)c2ccnc(OCc3ncccn3)c2c(=O)n1Cc1ccnc(C)c1 [T-0156] | – | exhibited significant sensitivity to anoxic coma | significant increase in PKG activity levels compared with sitter control shams; also recorded: demonstrated significant effects compared to that of the sham control | length of time to recover ventilatory motor pattern activity after SD ([1]; Example 1, bath application 10^-5 M for 10 minutes before second KCl injection): took significantly longer to recover motor pattern activity after the second injection; recovery time of ventilatory rhythm, second event versus first ([1]; Example 3, drug applied for 10 minutes prior to second injection, FIG. 3D): The recovery time was increased; time to anoxic coma onset during acute hypoxia, single agents ([2]; listed as T0156): increased sensitivity to acute hypoxia
3 | CC12C(=O)OC(=O)C1(C)C1CCC2O1 (centres unmarked) [Cantharidin, Hexahydro-3a,7a-dimethyl-4,7-epoxyisobenzofuran-1,3-dione] | – | demonstrated significant resilience to anoxic coma | PKG activity levels did not differ; also recorded: showed no significant effects on PKG enzyme activity levels compared to sham controls | time until the animal knocks out during anoxia (zebrafish): neuroprotection and prolonged behaviour when subject to anoxia; time until neural failure (respiratory brain slices): neuroprotection and prolonged neural function when subject to anoxia; SD-like events and neural function (mammals (mouse or rat)): neuroprotection and reduces SD-like events thereby prolonging neural function
4 | COC(=O)[C@@H](N)CCCNC(=N)N[N+](=O)[O-] [LNAME, N(G)-nitro-L-arginine methyl ester] | dramatically reduced the length of time taken to recover ventilatory central pattern generator (vCPG) function following SD | – | – | DAF2-DA cell body fluorescence in response to heat stress (NO-producing cells): prevented the increased fluorescence in response to heat stress
5 | N[C@@H](CCC(=O)N[C@@H](CSN=O)C(=O)NCC(=O)O)C(=O)O [SNOG, S-nitrosoglutathione] | did not exacerbate recovery times beyond that of control preparation times | – | – | –
